{"source": "paper PMC10470053", "about": "“Diverse p120RasGAP interactions with doubly phosphorylated partners EphB4, p190RhoGAP, and Dok1” (The Journal of Biological Chemistry, 2023)", "test_system": "RasGAP^FL (full-length RasGAP) GAP activity toward H-Ras", "assay": "In vitro GAP assay, single turnover fluorescence-based phosphate sensor", "assay_type": "biochemical, human", "conditions": "50 μM peptide, 25 nM RasGAP^FL, 0.8 μM GTP-H-Ras, 1 μM phosphate sensor, 20 mM Tris pH 8, 50 mM NaCl; first 10 min after Mg2+; n = 4 to 14, Mann-Whitney", "excerpt": "Finally, to probe whether the conformational movements in the SH2-SH3-SH2 region nonetheless impact catalytic activity in vitro, we conducted GAP assays. […] Our SAXS data for RasGAP^232 may provide a basis for how this is achieved: by inducing local changes in 232 conformations upon peptide engagement. Therefore, we purified full-length RasGAP (residues 1–1047, termed RasGAP^FL, Fig. S2G) and assessed activity against purified H-Ras GTPase domain preloaded with GTP (residues 1–167, Fig. S2H) in a single turnover fluorescence-based phosphate sensor assay that monitors phosphate release in real time ([64]). We find that RasGAP^FL activates H-Ras, as expected (Fig. 6) ([61], [62]). […]\nFigure 6 In vitro GAP assays.A, GAP assay for full-length RasGAP activation of GTP-loaded H-Ras. […] Initial rates calculated for each reaction using only the first 10 min after addition of Mg^2+, where the phosphate release rate was linear. […]\nH-Ras was preloaded with GTP by mixing purified H-Ras^1-167 protein, 10 mM EDTA, and 10-fold excess GTP in 20 mM Tris pH 8, 100 mM NaCl for 1 h at room temperature. […] Fluorescence excitation and emission settings were 430 nm and 450 nm, respectively with a bandwidth of 10 nm, and readings were taken in 1-min intervals. […]", "note": "Square brackets hold non-standard residues; d marks the D form. Ends that are not written are not given here. Peptide text beside a SMILES is read from it. pY = N[C@@H](Cc1ccc(OP(=O)(O)O)cc1)C(=O)O", "data": [{"molecule": "SD[pY]AEPMDAVVKPRNEEENI[pY]SVPH [pYpY p190RhoGAP-A, Doubly phosphorylated p190RhoGAP-A peptide (pY1087, pY1105)]", "values": [{"measurement": "effect of peptide on in vitro GAP activity (initial rate of phosphate release)", "result": "do not impact GAP activity"}]}, {"molecule": "CC[C@H](C)[C@H](NC(=O)[C@H](CCCNC(=N)N)NC(=O)[C@H](CC(C)C)NC(=O)[C@H](CO)NC(=O)[C@H](CC(=O)O)NC(=O)[C@H](CC(C)C)NC(=O)[C@@H]1CCCN1C(=O)[C@H](CCC(=O)O)NC(=O)[C@H](C)NC(=O)[C@H](Cc1ccc(OP(=O)(O)O)cc1)NC(=O)[C@H](CC(C)C)NC(=O)[C@H](C)NC(=O)[C@@H]1CCCN1C(=O)[C@@H]1CCCN1C(=O)[C@H](CO)NC(C)=O)C(=O)N[C@@H](C)C(=O)N1CCC[C@H]1C(=O)N[C@@H](CS)C(=O)N1CCC[C@H]1C(=O)N[C@@H](CO)C(=O)N[C@@H](CCC(N)=O)C(=O)N[C@@H](CC(=O)O)C(=O)N[C@@H](CO)C(=O)N[C@@H](CC(C)C)C(=O)N[C@@H](Cc1ccc(OP(=O)(O)O)cc1)C(=O)N[C@@H](CO)C(=O)N[C@@H](CC(=O)O)C(=O)N1CCC[C@H]1C(=O)N[C@@H](CC(C)C)C(=O)N[C@@H](CC(=O)O)C(=O)N[C@@H](CO)C(=O)N[C@H](C(N)=O)[C@@H](C)O", "note": "[pYpY Dok1] (Ac-SPPAL[pY]AEPLDSLRIAPCPSQDSL[pY]SDPLDST-NH2)", "values": [{"measurement": "effect of peptide on in vitro GAP activity (initial rate of phosphate release)", "result": "do not impact GAP activity"}]}]}
